Assays:
Chenopodium album = test: Example 5 field trial, herbicidal effect, ready-to-use formulation; format: in vivo; details: 41 DAA
Setaria viridis = test: Example 1 field trial, herbicidal effect, tank mixture; format: in vivo; details: 28 DAA
Hibiscus trionum = test: as above; format: in vivo; details: 28 DAA
Convolvolus arvensis [1] = test: as above; format: in vivo; details: 28 DAA
Persicaria maculate = test: Example 5 field trial, herbicidal effect, ready-to-use formulation; format: in vivo; details: 28 DAA
[2] = system: Persicaria laphatipholium; test: Example 6 field trial, herbicidal effect, ready-to-use formulation; format: in vivo; details: 25 DAA
Amaranthus retroflexus [3] = test: as above; format: in vivo; details: 18 DAA
Merculiaris annua [4] = test: as above; format: in vivo; details: 18 DAA
Amaranthus retroflexus [5] = test: Example 1 field trial, herbicidal effect, tank mixture; format: in vivo; details: 49 DAA
Persicaria maculosa = test: Example 4 field trial, herbicidal effect, ready-to-use formulation; format: in vivo; details: 35 DAA
Galium aparine = test: Example 5 field trial, herbicidal effect, ready-to-use formulation; format: in vivo; details: 25 DAA
Panonicum ulmi = test: Example 6 field trial, herbicidal effect, ready-to-use formulation; format: in vivo; details: CLZ 72 g a.c./ha; 42 DAA
[6] = system: Merculiaris annua (MERAN); test: Example 3 field trial, herbicidal effect, tank mixture; format: in vivo; details: 42-56 DAA
Echinochloa = test: Example 1 field trial, herbicidal effect, tank mixture; format: in vivo; details: 29 DAA
Polygonum aviculare = test: Example 5 field trial, herbicidal effect, ready-to-use formulation; format: in vivo; details: 38 DAA
Solanum physalifolium = test: as above; format: in vivo; details: 38 DAA
Cypurus = test: Example 4 field trial, herbicidal effect, ready-to-use formulation; format: in vivo; details: 35 DAA
[7] = system: Chenopodium album (CHEAL); test: Example 2 field trial, herbicidal effect, tank mixture; format: in vivo; details: 42-56 DAA
Solanum nigrum [8] = test: Example 4 field trial, herbicidal effect, ready-to-use formulation; format: in vivo; details: 35 DAA
Echinochloa crus galli = test: as above; format: in vivo; details: 35 DAA
[9] = system: Chenopodium album (CHEAL); test: Example 3 field trial, herbicidal effect, tank mixture; format: in vivo; details: 42-56 DAA
Amaranthus retroflexus [10] = test: Example 5 field trial, herbicidal effect, ready-to-use formulation; format: in vivo; details: 25 DAA
Convolvolus arvensis [11] = test: Example 4 field trial, herbicidal effect, ready-to-use formulation; format: in vivo; details: 44 DAA
Veronica persica = test: as above; format: in vivo; details: 55 DAA
Merculiaris annua [12] = test: Example 5 field trial, herbicidal effect, ready-to-use formulation; format: in vivo; details: 41 DAA
Solanum nigrum [13] = test: Example 6 field trial, herbicidal effect, ready-to-use formulation; format: in vivo; details: 18 DAA
Senecio vulgaris (SENVU) = test: Example 2 field trial, herbicidal effect, tank mixture; format: in vivo; details: 42-56 DAA
Veronica sp. (VERSS) = test: Example 3 field trial, herbicidal effect, tank mixture; format: in vivo; details: 42-56 DAA
Urtica urens = test: Example 4 field trial, herbicidal effect, ready-to-use formulation; format: in vivo; details: 22 DAA
[14] = Example 6 field trial, herbicidal effect, ready-to-use formulation; format: in vivo, Panonicum ulmi; details: MTB 1200 g a.c./ha; 42 DAA

CC1(C)CON(Cc2ccccc2Cl)C1=O [CLZ, 2-(2-chlorophenyl)methyl-4,4-dimethyl-3-isoxazolidinone]
h.e. (herbicidal effect) (Chenopodium album; CLZ 90 g a.c./ha): 28%
h.e. (herbicidal effect) (Setaria viridis; CLZ 72 g a.c./ha): 86%
h.e. (herbicidal effect) (Hibiscus trionum; CLZ 72 g a.c./ha): 79%
h.e. (herbicidal effect) (Convolvolus arvensis [1]; CLZ 72 g a.c./ha): 46%
h.e. (herbicidal effect) (Persicaria maculate; CLZ 90 g a.c./ha): 80%
h.e. (herbicidal effect) ([2]; CLZ 72 g a.c./ha): 34%
h.e. (herbicidal effect) (Amaranthus retroflexus [3]; CLZ 72 g a.c./ha): 77%
h.e. (herbicidal effect) (Merculiaris annua [4]; CLZ 72 g a.c./ha): 60%
h.e. (herbicidal effect) (Amaranthus retroflexus [5]; CLZ 72 g a.c./ha): 10%
h.e. (herbicidal effect) (Persicaria maculosa; CLZ 36 g a.c./ha): 28%
h.e. (herbicidal effect) (Galium aparine; CLZ 90 g a.c./ha): 33%
h.e. (herbicidal effect) (Panonicum ulmi): 0%
CLZ h.e. ([6]; CLZ 54 g a.c./ha): 43.3%
CLZ h.e. ([6]; CLZ 72 g a.c./ha): 50%
CLZ h.e. ([6]; CLZ 90 g a.c./ha): 23.3%
h.e. (herbicidal effect) (Echinochloa; CLZ 72 g a.c./ha): 57%
h.e. (herbicidal effect) (Polygonum aviculare; CLZ 90 g a.c./ha): 78%
h.e. (herbicidal effect) (Solanum physalifolium; CLZ 90 g a.c./ha): 61%
h.e. (herbicidal effect) (Cypurus; CLZ 36 g a.c./ha): 67%
CLZ h.e. ([7]; CLZ 45 g a.c./ha): 6%
CLZ h.e. ([7]; CLZ 67.5 g a.c./ha): 43%
CLZ h.e. ([7]; CLZ 90 g a.c./ha): 53%
h.e. (herbicidal effect) (Solanum nigrum [8]; CLZ 36 g a.c./ha): 52%
h.e. (herbicidal effect) (Echinochloa crus galli; CLZ 36 g a.c./ha): 63%
CLZ h.e. ([9]; CLZ 54 g a.c./ha): 46.7%
CLZ h.e. ([9]; CLZ 72 g a.c./ha): 56.7%
CLZ h.e. ([9]; CLZ 90 g a.c./ha): 63.3%
h.e. (herbicidal effect) (Amaranthus retroflexus [10]; CLZ 90 g a.c./ha): 10%
h.e. (herbicidal effect) (Convolvolus arvensis [11]; CLZ 36 g a.c./ha): 30%
h.e. (herbicidal effect) (Veronica persica; CLZ 36 g a.c./ha): 0%
h.e. (herbicidal effect) (Merculiaris annua [12]; CLZ 90 g a.c./ha): 50%
h.e. (herbicidal effect) (Solanum nigrum [13]; CLZ 72 g a.c./ha): 66%
CLZ h.e. (Senecio vulgaris (SENVU); CLZ 45 g a.c./ha): 5%
CLZ h.e. (Senecio vulgaris (SENVU); CLZ 67.5 g a.c./ha): 40%
CLZ h.e. (Senecio vulgaris (SENVU); CLZ 90 g a.c./ha): 39%
CLZ h.e. (Veronica sp. (VERSS); CLZ 54 g a.c./ha): 43.3%
CLZ h.e. (Veronica sp. (VERSS); CLZ 72 g a.c./ha): 60%
CLZ h.e. (Veronica sp. (VERSS); CLZ 90 g a.c./ha): 16.7%
h.e. (herbicidal effect) (Urtica urens; CLZ 36 g a.c./ha): 0%

CON(C)C(=O)Nc1ccc(Br)cc1 [MTB, 3-(4-bromophenyl)-1-methoxy-1-methylurea]
h.e. (herbicidal effect) (Chenopodium album; MTB 1000 g a.c./ha): 75%
h.e. (herbicidal effect) (Setaria viridis; MTB 1200 g a.c./ha): 72%
h.e. (herbicidal effect) (Hibiscus trionum; MTB 1200 g a.c./ha): 81%
h.e. (herbicidal effect) (Convolvolus arvensis [1]; MTB 1200 g a.c./ha): 83%
h.e. (herbicidal effect) (Persicaria maculate; MTB 1000 g a.c./ha): 43%
h.e. (herbicidal effect) ([2]; MTB 1200 g a.c./ha): 21%
h.e. (herbicidal effect) (Amaranthus retroflexus [3]; MTB 1200 g a.c./ha): 43%
h.e. (herbicidal effect) (Merculiaris annua [4]; MTB 1200 g a.c./ha): 40%
h.e. (herbicidal effect) (Amaranthus retroflexus [5]; MTB 1200 g a.c./ha): 50%
h.e. (herbicidal effect) (Persicaria maculosa; MTB 400 g a.c./ha): 79%
h.e. (herbicidal effect) (Galium aparine; MTB 1000 g a.c./ha): 28%
h.e. (herbicidal effect) [14]: 89%
MTB h.e. ([6]; MTB 600 g a.c./ha): 10%
MTB h.e. ([6]; MTB 1200 g a.c./ha): 78.3%
MTB h.e. ([6]; MTB 1800 g a.c./ha): 91%
h.e. (herbicidal effect) (Echinochloa; MTB 1200 g a.c./ha): 35%
h.e. (herbicidal effect) (Polygonum aviculare; MTB 1000 g a.c./ha): 66%
h.e. (herbicidal effect) (Solanum physalifolium; MTB 1000 g a.c./ha): 65%
h.e. (herbicidal effect) (Cypurus; MTB 400 g a.c./ha): 50%
MTB h.e. ([7]; MTB 500 g a.c./ha): 61%
MTB h.e. ([7]; MTB 1000 g a.c./ha): 69%
MTB h.e. ([7]; MTB 1500 g a.c./ha): 79%
h.e. (herbicidal effect) (Solanum nigrum [8]; MTB 400 g a.c./ha): 76%
h.e. (herbicidal effect) (Echinochloa crus galli; MTB 400 g a.c./ha): 68%
MTB h.e. ([9]; MTB 600 g a.c./ha): 69.3%
MTB h.e. ([9]; MTB 1200 g a.c./ha): 93%
MTB h.e. ([9]; MTB 1800 g a.c./ha): 98.3%
h.e. (herbicidal effect) (Amaranthus retroflexus [10]; MTB 1000 g a.c./ha): 70%
h.e. (herbicidal effect) (Convolvolus arvensis [11]; MTB 400 g a.c./ha): 18%
h.e. (herbicidal effect) (Veronica persica; MTB 400 g a.c./ha): 25%
h.e. (herbicidal effect) (Merculiaris annua [12]; MTB 1000 g a.c./ha): 49%
h.e. (herbicidal effect) (Solanum nigrum [13]; MTB 1200 g a.c./ha): 31%
MTB h.e. (Senecio vulgaris (SENVU); MTB 500 g a.c./ha): 18%
MTB h.e. (Senecio vulgaris (SENVU); MTB 1000 g a.c./ha): 34%
MTB h.e. (Senecio vulgaris (SENVU); MTB 1500 g a.c./ha): 35%
MTB h.e. (Veronica sp. (VERSS); MTB 600 g a.c./ha): 20%
MTB h.e. (Veronica sp. (VERSS); MTB 1200 g a.c./ha): 35%
MTB h.e. (Veronica sp. (VERSS); MTB 1800 g a.c./ha): 97%
h.e. (herbicidal effect) (Urtica urens; MTB 400 g a.c./ha): 37%

— US12114661B2, “Synergistically effective herbicide composition comprising metobromuron and clomazone” (BELCHIM CROP PROTECTION NV, priority 2018, dated 2024)
